Assays:
Assay type in all cases: cell-based
HIV WT integrase = experiment: PhenoScreen (Phenosense) assay, single-round luciferase pseudotyped HIV; conditions: Human immunodeficiency virus 1, read-out: Activity, Phenosense assay, WT
Description: (§1) Monogram Bioscience' PhenoScreen assay allows the evaluation of integrase inhibitors for activity against a variety of HIV variants. The assay uses virus generated from 2 DNA constructs; one containing the HIV LTR, gag and pol regions, as well as a luciferase reporter gene in place of the viral envelope genes, and a second DNA construct containing the amphotrophic murine leukemia virus (A-MLV) envelope gene required to pseudotype virions and render them capable of entry into a target cell. Viruses generated using these constructs by transfection into a producer cell line such as 293T are capable of one-round of infection only. Successful integration events are directly proportional to the levels of luciferase expression 48 h after infection.
(§2) The viral variants chosen by the present inventors to screen integration inhibitors consist of mutations within the viral integrase enzyme known to confer resistance to a number of known integration inhibitors published in the literature. In particular, the viral variants containing the Q148H/G140S double mutation in integrase, and the N155H/E92Q double mutation in integrase, represent two of the more common viruses identified to arise in patients that are failing treatment with Isentress (Raltegravir, MK-0518).

[1] = test system: HIV variant G140S/Q148H integrase; experiment: as above; conditions: Human immunodeficiency virus 1, read-out: Activity, Phenosense assay, G140S Q148H
Description: as §1, §2

[2] = test system: HIV variant E92Q/N155H integrase; experiment: as above; conditions: for EC50: Human immunodeficiency virus 1, read-out: Activity, Phenosense assay, E92Q/N155H
Description: as §1, §2

[3] = test system: HIV variant T125K/F121Y integrase; experiment: as above; conditions: for EC50: Human immunodeficiency virus 1, read-out: Activity, Phenosense assay, T125K F121Y
Description: as §1, §2

[4] = test system: HIV variant Y143R integrase; experiment: as above; conditions: for EC50: Human immunodeficiency virus 1, read-out: Activity, Phenosense assay, Y143R
Description: as §1, §2

[5] = test system: HIV variant T661/S153Y integrase; experiment: as above; conditions: Human immunodeficiency virus 1, read-out: Activity, Phenosense assay, T661 S153Y
Description: as §1, §2

[6] = test system: HIV-1 reporter virus, N155H/E92Q (NHEQ) integrase; experiment: Luciferase reporter virus infectivity assay in 293T cells; conditions: Human immunodeficiency virus 1, HEK-293T, 48 h, read-out: Luciferase assay EC50, NHEQ
Description: (§3) Infectivity assays using reporter viruses derived from lentiviral vectors capable of a single round of infection were used to determine the activity (EC50) of compounds. The DNA used to generate viruses for infection was the full-length HIV-1 genome which had been envelope-deleted. In addition, a reporter gene (the firefly luciferase gene from Photinus pyralis) was cloned into the nef region of the HIV backbone for ease of assay readout. […]. Culture supernatants containing VSV-G pseudotyped virions were harvested 64 h post transfection, clarified by centrifugation to remove cell debris, and frozen at −70° C. until use.
(§4) HIV integrase was mutated within a shuttle vector (pGEM) containing the majority of the HIV-1 gag and pol sequence using site-directed mutagenesis to generate sequences that are known to confer resistance to published integrase inhibitors. These include but are not limited to mutations such as Q148H/G140S (in table #QHGS), N155H/E92Q (in table #NHEQ), F121Y/T124K (in table FYTK), Y143R (in table #Y143R) and the triple mutant Q148K/G140A/E138A. (in table#QKGAEA). The mutated integrase coding region within the shuttle vector was sequence verified, and then exchanged for the wild-type (WT) coding sequence in the reporter virus DNA backbone.
(§5) 293T cells were plated out at 12000 cells per well in CellView 96-well cell culture plates (Invitrogen) 16 h prior to compound addition. Compounds were preincubated with cells for 4 h at 37° C. prior to the addition of virus sufficient to generate approximately 10000 Luciferase light units (as measured by the Victor Wallace luminometer) upon assaying using the Bright-Glo™ reagent (Promega) according to the manufacturer's instructions at 48 h post infection.

[7] = test system: HIV-1 reporter virus, Q148K/G140A/E138A (QKGAEA) integrase; experiment: as above; conditions: Human immunodeficiency virus 1, HEK-293T, 48 h, read-out: Luciferase assay EC50, QKGAEA
Description: as §3, §4, §5

[8] = test system: HIV-1 reporter virus, wild-type (WT) integrase; experiment: as above; conditions: Human immunodeficiency virus 1, HEK-293T, 48 h, read-out: Luciferase assay EC50, WT
Description: as §3, §4, §5

[9] = test system: HIV-1 reporter virus, Q148H/G140S (QHGS) integrase; experiment: as above; conditions: Human immunodeficiency virus 1, HEK-293T, 48 h, read-out: Luciferase assay EC50, QHGS
Description: as §3, §4, §5

[10] = test system: HIV-1 reporter virus, F121Y/T124K (FYTK) integrase; experiment: as above; conditions: Human immunodeficiency virus 1, HEK-293T, 48 h, read-out: Luciferase assay EC50, FYTK
Description: as §3, §4, §5

[11] = test system: HIV-1 reporter virus, Y143R integrase; experiment: as above; conditions: Human immunodeficiency virus 1, HEK-293T, 48 h, read-out: Luciferase assay EC50, Y143R
Description: as §3, §4, §5

SMILES | EC50 (HIV WT integrase) | EC50 [1] | EC50 [2] | improvement in activity over comparative example 3, E92Q/N155H ([2]; footnote b, E92Q/N155H mutant) | EC50 [3] | improvement in activity over comparative example 3, T125K F121Y ([3]; footnote a, T125K/F121Y mutant) | EC50 [4] | improvement in activity over comparative example 3, Y143R ([4]; footnote a, Y143R mutant) | EC50 [5] | EC50 [6] | EC50 [7] | EC50 [8] | EC50 [9] | EC50 [10] | EC50 [11]
O=c1c(O)c(-c2ncc(Cc3ccc(F)cc3)o2)nc2c(I)cc(N3CCOCC3)cn12 [Example 4, 2-[5-(4-fluoro-benzyl)-oxazol-2-yl]-3-hydroxy-9-iodo-7-morpholin-4-yl-pyrido[1,2-a]pyrimidin-4-one] | 1 to 100 nM | > 10000 nM | 1 to 100 nM | b 2-fold improvement in activity over comparative example 3 | 1 to 100 nM | a 2.5-fold improvement in activity over comparative example 3 | 1 to 100 nM | a 2.5-fold improvement in activity over comparative example 3 | 1 to 100 nM | – | – | – | – | – | –
O=c1c(O)c(-c2ncc(Cc3ccc(F)cc3)o2)nc2ccc(N3CCOCC3)cn12 [Example 7, 2-[5-(4-fluoro-benzyl)-oxazol-2-yl]-3-hydroxy-7-morpholin-4-yl-pyrido[1,2-a]pyrimidin-4-one] | 1 to 100 nM | 1000 to 10000 nM | 100 to 1000 nM | – | 100 to 1000 nM | – | 1 to 100 nM | – | 1 to 100 nM | – | – | – | – | – | –
O=c1c(O)c(-c2ncc(Cc3ccc(F)cc3)s2)nc2ccc(N3CCOCC3)cn12 [Example 41, 2-[5-(4-Fluoro-benzyl)-thiazol-2-yl]-3-hydroxy-7-morpholin-4-yl-pyrido[1,2-a]pyrimidin-4-one] | 1 to 100 nM | 100 to 1000 nM | 100 to 1000 nM | – | 1 to 100 nM | – | 1 to 100 nM | – | 1 to 100 nM | 1 to 100 nM | > 1000 nM | 1 to 100 nM | > 1000 nM | – | –
O=c1c(O)c(-c2ncc(Cc3ccc(Cl)c(Cl)c3)s2)nc2ccc(N3CCOCC3)cn12 [Example 42, 2-[5-(3,4-Dichloro-benzyl)-thiazol-2-yl]-3-hydroxy-7-morpholin-4-yl-pyrido[1,2-a]pyrimidin-4-one] | 100 to 1000 nM | 1000 to 10000 nM | 100 to 1000 nM | – | 100 to 1000 nM | – | 100 to 1000 nM | – | 100 to 1000 nM | – | – | – | – | – | –
O=c1c(O)c(-c2ncc(Cc3ccc(F)cc3)[nH]2)nc2ccc(N3CCOCC3)cn12 [Example 45, 5-(4-Fluoro-benzyl)-2-(3-hydroxy-7-morpholin-4-yl-4-oxo-4H-pyrido[1,2-a]pyrimidin-2-yl)-1H-imidazol-1-ium chloride] | – | – | – | – | – | – | – | – | – | 100 to 1000 nM | 100 to 1000 nM | 1 to 100 nM | 100 to 1000 nM | 100 to 1000 nM | 100 to 1000 nM
CN1CCN(c2cc(N3CCOCC3)cn3c(=O)c(O)c(-c4ncc(Cc5ccc(F)cc5)s4)nc23)S1(=O)=O [Example 99, 2-[5-(4-Fluoro-benzyl)-thiazol-2-yl]-3-hydroxy-9-(5-methyl-1,1-dioxo-1l6-[1,2,5]thiadiazolidin-2-yl)-7-morpholin-4-yl-pyrido[1,2-a]pyrimidin-4-one] | – | – | – | – | – | – | – | – | – | 1 to 100 nM | 100 to 1000 nM | 1 to 100 nM | 1 to 100 nM | 1 to 100 nM | 1 to 100 nM
CN1CCN(c2cc(N3CCOCC3)cn3c(=O)c(O)c(-c4ncc(Cc5ccc(F)cc5)s4)nc23)C1=O [Example 101, 2-[5-(4-Fluoro-benzyl)-thiazol-2-yl]-3-hydroxy-9-(3-methyl-2-oxo-imidazolidin-1-yl)-7-morpholin-4-yl-pyrido[1,2-a]pyrimidin-4-one] | – | – | – | – | – | – | – | – | – | 1 to 100 nM | 100 to 1000 nM | 1 to 100 nM | 1 to 100 nM | 1 to 100 nM | 1 to 100 nM
O=C1OCCN1c1cc(N2CCOCC2)cn2c(=O)c(O)c(-c3ncc(Cc4ccc(F)cc4)s3)nc12 [Example 103, 2-[5-(4-Fluoro-benzyl)-thiazol-2-yl]-3-hydroxy-7-morpholin-4-yl-9-(2-oxo-oxazolidin-3-yl)-pyrido[1,2-a]pyrimidin-4-one] | – | – | – | – | – | – | – | – | – | 1 to 100 nM | 100 to 1000 nM | 1 to 100 nM | 1 to 100 nM | 1 to 100 nM | 1 to 100 nM
O=c1c(O)c(-c2ncc(Cc3ccc(F)cc3)s2)nc2c(N3CCCS3(=O)=O)cc(N3CCOCC3)cn12 [Example 105, 9-(1,1-Dioxo-1l6-isothiazolidin-2-yl)-2-[5-(4-fluoro-benzyl)-thiazol-2-yl]-3-hydroxy-7-morpholin-4-yl-pyrido[1,2-a]pyrimidin-4-one] | – | – | – | – | – | – | – | – | – | 1 to 100 nM | 100 to 1000 nM | 1 to 100 nM | 100 to 1000 nM | 1 to 100 nM | 1 to 100 nM
